Data from patent publication EP4603105A1, “PHARMACEUTICAL COMPOSITION CONTAINING CYCLIC COMPOUND HAVING SELECTIVE KRAS INHIBITORY EFFECT AGAINST HRAS AND NRAS” (CHUGAI SEIYAKU KABUSHIKI KAISHA, priority 2022, dated 2024).
Like-named read-outs stand apart in the source and are kept apart here.

Columns and labels:
[1] = test system: human lung cancer strain NCI-H441; test: NCI-H441 cell proliferation inhibitory activity (CellTiter-Glo, 4 days); assay type: cell-based; conditions: read-out: NCl-H441 IC50
Procedure, shortened: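 Step one: dispense the test compound in serial DMSO dilutions. Step three: add the reagent and measure […].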

[2] = target: GDP-bound KRAS wild-type protein (Homo sapiens, UniProt P01116); test: Binding to KRAS by surface plasmon resonance (SPR), dissociation constant KD
Procedure, shortened: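 GDP-bound biotin-Avi RAS captured at ~100–300 RU, 30°C, pH 7.4 HBS containing 10 µM GDP, 10 mM MgCl2, 1 mM DTT, 0.01% Tween 20 and 4% DMSO. KD by 1:1 fitting.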

[3] = target: GDP-bound NRAS wild-type protein (Homo sapiens, UniProt P01111); test: Binding to NRAS by surface plasmon resonance (SPR), KD and KD ratio to KRAS
Procedure, shortened: (§1)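 Biotinylated GDP-bound RAS was captured at about 100–300 RU. Running buffer: HBS pH 7.4, 10 mM MgCl2, 10 µM GDP, 1 mM DTT, 0.01% Tween 20, 4% DMSO.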

HRAS wild-type protein = HRAS wild-type protein (Homo sapiens, UniProt P01112); test: Binding to HRAS by surface plasmon resonance (SPR), KD and KD ratio to KRAS
Procedure, shortened: as §1

[4] = 50% proliferation inhibitory concentration, four days
[5] = Single Cycle Kinetics, 1:1 binding model
[6] = ratio of KD with respect to GDP-bound NRAS wild-type protein to KD with respect to KRAS
[7] = ratio of KD with respect to HRAS wild-type protein to KD with respect to KRAS
[8] = ratio of KD for GDP-bound NRAS wild-type protein to KD for KRAS
[9] = ratio of KD for HRAS wild-type protein to KD for KRAS

GDP-bound NRAS wild-type protein, sequence (P01111 whole entry): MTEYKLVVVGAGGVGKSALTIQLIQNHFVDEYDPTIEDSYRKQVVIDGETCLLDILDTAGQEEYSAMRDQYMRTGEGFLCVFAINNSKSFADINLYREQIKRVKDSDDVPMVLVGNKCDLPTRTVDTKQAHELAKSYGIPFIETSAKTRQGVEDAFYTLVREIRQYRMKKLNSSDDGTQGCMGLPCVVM
HRAS wild-type protein, sequence (P01112 whole entry): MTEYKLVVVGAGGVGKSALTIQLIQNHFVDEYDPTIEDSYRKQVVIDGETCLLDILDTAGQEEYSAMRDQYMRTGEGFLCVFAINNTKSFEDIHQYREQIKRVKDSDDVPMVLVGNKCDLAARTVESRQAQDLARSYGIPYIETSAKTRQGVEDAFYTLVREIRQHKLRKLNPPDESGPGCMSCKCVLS
GDP-bound KRAS wild-type protein, sequence (P01116 1-188 isoform P01116-2): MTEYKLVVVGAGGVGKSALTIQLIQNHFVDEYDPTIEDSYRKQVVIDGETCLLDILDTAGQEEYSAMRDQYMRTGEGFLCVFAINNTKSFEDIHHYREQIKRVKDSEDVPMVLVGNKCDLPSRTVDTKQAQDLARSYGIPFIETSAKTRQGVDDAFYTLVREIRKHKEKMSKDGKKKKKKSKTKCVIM

| SMILES | IC50 [1, 4] | Kd [2, 5] | IC50 ([1]; NCI-H441 cells, 4 days) | Kd ([2]; 1:1 binding model) | Kd ([2]; Single Cycle Kinetics) | NRAS /KRAS [3, 6] | HRAS /KRAS (HRAS wild-type protein; [7]) | NRAS /KRAS [3, 8] | HRAS /KRAS (HRAS wild-type protein; [9]) |
| --- | --- | --- | --- | --- | --- | --- | --- | --- | --- |
| CCCO[C@H](C)[C@@H]1NC(=O)[C@H](COCC)N(C)C(=O)C[C@@H](C(=O)N(C)CC)N(C)C(=O)[C@H](C2CCCC2)N(C)C(=O)C2(CC(C)(C)C2)NC(=O)[C@@H]2C[C@H](C)CN2C(=O)[C@H](CCc2cc(F)c(C(F)(F)F)c(F)c2)NC(=O)CN(C)C(=O)[C@H](Cc2ccc(C)cc2)N2CC/C=C\C[C@@H](C2=O)N(C)C(=O)CN(C)C1=O [PP2426] |  |  | 48 nM | 0.31 nM |  |  |  | AA (a compound having 20 or more is denoted as AA) | A (a compound having 10 or more and less than 20 is denoted as A) |
| CCC[C@H]1C(=O)N[C@@H]([C@@H](C)CC)C(=O)N(C)CC(=O)N(C)[C@H]2C/C=C\CCN(C2=O)[C@@H](Cc2ccc(C)cc2)C(=O)N(C)CC(=O)N[C@@H](CCc2cc(F)c(C(F)(F)F)c(F)c2)C(=O)N2C[C@H](OCC)C[C@H]2C(=O)NC2(CC(C)(C)C2)C(=O)N(C)[C@@H](CC2CCC2)C(=O)N(C)[C@H](C(=O)N(C)C)CC(=O)N1C [PP2751] |  |  | 39.3 nM | 0.85 nM |  |  |  | A (a compound having 10 or more and less than 20 is denoted as A) | A (a compound having 10 or more and less than 20 is denoted as A) |
| CCO[C@H](C)[C@@H]1NC(=O)[C@H](CC(C)C)N(C)C(=O)C[C@@H](C(=O)N(C)CC)N(C)C(=O)[C@H](C2CCCC2)N(C)C(=O)C2(CC(C)(C)C2)NC(=O)[C@@H]2C[C@H](C)CN2C(=O)[C@H](CCc2ccc(C(F)(F)F)c(OC)c2)NC(=O)CN(C)C(=O)[C@H](Cc2ccc(C)cc2)N2CC/C=C\C[C@@H](C2=O)N(C)C(=O)CN(C)C1=O [PP2413] |  |  | 115 nM | 0.25 nM |  |  |  | A (a compound having 10 or more and less than 20 is denoted as A) | A (a compound having 10 or more and less than 20 is denoted as A) |
| CCO[C@@H]1C[C@H]2C(=O)NC3(CCC3)C(=O)N(C)[C@@H](C(CC)CC)C(=O)N(C)[C@H](C(=O)N(C)C)CC(=O)N(C)[C@@H](COC)C(=O)N[C@@H]([C@@H](C)CC)C(=O)N(C)CC(=O)N(C)[C@H]3C/C=C\CCN(C3=O)[C@@H](Cc3ccc(C(F)(F)F)cc3)C(=O)N(C)CC(=O)N[C@@H](CCc3ccc(Cl)c(Cl)c3)C(=O)N2C1 [PP1221] | 40.6 nM | 0.4 nM |  |  |  | AA (a compound having 20 or more is denoted as AA) | A (a compound having 10 or more and less than 20 is denoted as A) |  |  |
| CC[C@H](C)[C@@H]1NC(=O)[C@H](COC)N(C)C(=O)C[C@@H](C(=O)N(C)C)N(C)C(=O)[C@H](C2CCCC2)N(C)C(=O)C2(CC(C)(C)C2)NC(=O)[C@@H]2C[C@@H](C)CN2C(=O)[C@H](CCc2ccc(C(F)(F)F)c(OC)c2)NC(=O)CN(C)C(=O)[C@H](Cc2ccc(C)cc2)N2CC/C=C\C[C@@H](C2=O)N(C)C(=O)CN(C)C1=O [PP2387] |  |  | 16.5 nM | 0.11 nM |  |  |  | A (a compound having 10 or more and less than 20 is denoted as A) | A (a compound having 10 or more and less than 20 is denoted as A) |
| CCC[C@H]1C(=O)N[C@@H]([C@@H](C)CC)C(=O)N(C)CC(=O)N(C)[C@H]2C/C=C\CCN(C2=O)[C@@H](Cc2ccc(C)cc2)C(=O)N(C)CC(=O)N[C@@H](CCc2cc(F)c(C(F)(F)F)c(F)c2)C(=O)N2CC3(CC3)C[C@H]2C(=O)N(C)C2(CCC2)C(=O)N(C)[C@@H](CC(C)(C)C)C(=O)N(C)[C@H](C(=O)N(C)C)CC(=O)N1C [PP3333] |  |  | 4.5 nM |  | 0.019 nM |  |  | B (a compound having 3 or more and less than 10 is denoted as B) | B (a compound having 3 or more and less than 10 is denoted as B) |
| CCCO[C@H](C)[C@@H]1NC(=O)[C@H](COCC)N(C)C(=O)C[C@@H](C(=O)N(C)CC)N(C)C(=O)[C@H](C2CCCC2)N(C)C(=O)C2(CC(C)(C)C2)NC(=O)[C@@H]2C[C@H](C)CN2C(=O)[C@H](CCc2ccc(C(F)(F)F)c(OC)c2)NC(=O)CN(C)C(=O)[C@H](Cc2ccc(C)cc2)N2CC/C=C\C[C@@H](C2=O)N(C)C(=O)CN(C)C1=O [PP2425] |  |  | 51.7 nM | 0.23 nM |  |  |  | AA (a compound having 20 or more is denoted as AA) | A (a compound having 10 or more and less than 20 is denoted as A) |
| CCC[C@H]1C(=O)N[C@@H](C2CCCC2)C(=O)N(C)CC(=O)N(C)[C@H]2C/C=C\CCN(C2=O)[C@@H](Cc2ccc(C)cc2)C(=O)N(C)CC(=O)N[C@@H](CCc2ccc(C(F)(F)F)c(Cl)c2)C(=O)N2CC3(CC3)C[C@H]2C(=O)N(C)C2(CCC2)C(=O)N(C)[C@@H](CC(C)(C)C)C(=O)N(C)[C@H](C(=O)N(C)C)CC(=O)N1C [PP3328] |  |  | 1.7 nM |  | 0.026 nM |  |  | A (a compound having 10 or more and less than 20 is denoted as A) | B (a compound having 3 or more and less than 10 is denoted as B) |
| CCC[C@H]1C(=O)N[C@@H]([C@@H](C)CC)C(=O)N(C)CC(=O)N(C)[C@H]2C/C=C\CCN(C2=O)[C@@H](Cc2ccc(C(F)(F)F)cc2)C(=O)N(C)CC(=O)N[C@@H](CCc2ccc(C(F)(F)F)c(Cl)c2)C(=O)N2CC3(CC3)C[C@H]2C(=O)NC2(CCC2)C(=O)N(C)[C@@H]([C@@H](C)CC)C(=O)N(C)[C@H](C(=O)N(C)C)CC(=O)N1C [PP3416] |  |  | 12.9 nM |  | 0.25 nM |  |  | AA (a compound having 20 or more is denoted as AA) | A (a compound having 10 or more and less than 20 is denoted as A) |
| CCO[C@@H]1C[C@H]2C(=O)NC3(CCC3)C(=O)N(C)[C@@H](C3CCCC3)C(=O)N(C)[C@H](C)CC(=O)N(C)[C@@H](CC(C)C)C(=O)N[C@@H]([C@@H](C)CC)C(=O)N(C)CC(=O)N(C)[C@H]3C/C=C\CCN(C3=O)[C@@H](Cc3ccc(C)cc3)C(=O)N(C)CC(=O)N[C@@H](CCc3cc(F)c(C(F)(F)F)c(F)c3)C(=O)N2C1 [PP1417] | 18.4 nM | 0.26 nM |  |  |  | B (a compound having 3 or more and less than 10 is denoted as B) | B (a compound having 3 or more and less than 10 is denoted as B) |  |  |

More lines, main results first:

| IC50 [1, 4] | Kd [2, 5] | IC50 ([1]; NCI-H441 cells, 4 days) | Kd ([2]; 1:1 binding model) | Kd ([2]; Single Cycle Kinetics) | SMILES | NRAS /KRAS [3, 6] | HRAS /KRAS (HRAS wild-type protein; [7]) | NRAS /KRAS [3, 8] | HRAS /KRAS (HRAS wild-type protein; [9]) |
| --- | --- | --- | --- | --- | --- | --- | --- | --- | --- |
| 13 nM | 0.056 nM |  |  |  | CCO[C@@H]1C[C@H]2C(=O)NC3(CCC3)C(=O)N(C)[C@@H](C3CCCC3)C(=O)N(C)[C@H](C(=O)N(C)C)CC(=O)N(C)[C@@H](CC(F)F)C(=O)N[C@@H]([C@@H](C)CC)C(=O)N(C)CC(=O)N(C)[C@H]3CCCCCN(C3=O)[C@@H](Cc3ccc(F)cc3)C(=O)N(C)CC(=O)N[C@@H](CCc3cc(F)c(C(F)(F)F)c(F)c3)C(=O)N2C1 [PP1191] | A (a compound having 10 or more and less than 20 is denoted as A) | B (a compound having 3 or more and less than 10 is denoted as B) |  |  |
|  |  | 25.4 nM |  | 1.4 nM | C=CC[C@H]1C(=O)N(C)[C@H](C(=O)N(C)C)CC(=O)N(C)[C@@H](CC(C)C)C(=O)N[C@@H]([C@@H](C)CC)C(=O)N(C)CC(=O)N(C)[C@H]2C/C=C\CCN(C2=O)[C@@H](Cc2ccc(C)cc2)C(=O)N(C)CC(=O)N[C@@H](CCc2cc(F)c(C(F)(F)F)c(F)c2)C(=O)N2C[C@H](OCC)C[C@H]2C(=O)N(C)C2(CCC2)C(=O)N1C [PP3348] |  |  | A (a compound having 10 or more and less than 20 is denoted as A) | A (a compound having 10 or more and less than 20 is denoted as A) |
|  |  | 4.2 nM |  | 0.078 nM | C#CC[C@H]1C(=O)N[C@@H]([C@@H](C)CC)C(=O)N2CCC[C@H]2C(=O)N(C)[C@H]2C/C=C\CCN(C2=O)[C@@H](Cc2ccc(C)cc2)C(=O)N(C)CC(=O)N[C@@H](CCc2cc(F)c(C(F)(F)F)c(F)c2)C(=O)N2C[C@H](OCC)C[C@H]2C(=O)N(C)C2(CCC2)C(=O)N(C)[C@@H](C2CCCC2)C(=O)N(C)[C@H](C(=O)N(C)C)CC(=O)N1C [PP3256] |  |  | A (a compound having 10 or more and less than 20 is denoted as A) | A (a compound having 10 or more and less than 20 is denoted as A) |
|  |  | 2.9 nM |  | 0.088 nM | C#CC[C@H]1C(=O)N[C@@H]([C@@H](C)CC)C(=O)N2CCC[C@H]2C(=O)N(C)[C@H]2C/C=C\CCN(C2=O)[C@@H](Cc2ccc(C(F)(F)F)cc2)C(=O)N(C)CC(=O)N[C@@H](CCc2cc(F)c(C(F)(F)F)c(F)c2)C(=O)N2C[C@H](OCC)C[C@H]2C(=O)N(C)C2(CCC2)C(=O)N(C)[C@@H](C2CCCC2)C(=O)N(C)[C@H](C(=O)N(C)C)CC(=O)N1C [PP3253] |  |  | A (a compound having 10 or more and less than 20 is denoted as A) | B (a compound having 3 or more and less than 10 is denoted as B) |
|  |  | 6 nM |  | 0.097 nM | C#CC[C@H]1C(=O)N[C@@H]([C@@H](C)CC)C(=O)N(C2CC2)CC(=O)N(C)[C@H]2C/C=C\CCN(C2=O)[C@@H](Cc2ccc(C(F)(F)F)cc2)C(=O)N(C)CC(=O)N[C@@H](CCc2ccc(C(F)(F)F)c(OC)c2)C(=O)N2C[C@H](OCC)C[C@H]2C(=O)N(C)C2(CCC2)C(=O)N(C)[C@@H](C2CCCC2)C(=O)N(C)[C@H](C(=O)N(C)C)CC(=O)N1C [PP3242] |  |  | A (a compound having 10 or more and less than 20 is denoted as A) | A (a compound having 10 or more and less than 20 is denoted as A) |
